Test results reported in US10131652B2, “Pyrimidinyloxy benzene derivatives as herbicides” (E. I. DU PONT DE NEMOURS AND COMPANY, priority 2014, dated 2018).

Legend:
Format in all cases: in vivo
[1] = tested on: small-flower umbrella sedge (Cyperus difformis); test: Test C flooded paddy test plant response; conditions: Flood, 250 g ai/ha; scale of 0 to 100 where 0 is no effect and 100 is complete control; 13 to 15 days
Procedure, shortened: (§1)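 Greenhouse paddy assay, 13–15 days. Treatment into 3 cm floodwater over 2-leaf plants; visual 0–100 rating against controls.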

rice (Oryza sativa) = test: Test C flooded paddy test plant response; conditions: Flood, 250 g ai/ha; scale of 0 to 100 where 0 is no effect and 100 is complete control; 13 to 15 days
Procedure, shortened: as §1

[2] = tested on: barnyardgrass (Echinochloa crus-galli); test: Test C flooded paddy test plant response; conditions: Flood, 250 g ai/ha; scale of 0 to 100 where 0 is no effect and 100 is complete control; 13 to 15 days
Procedure, shortened: as §1

[3] = tested on: ducksalad (Heteranthera limosa); test: Test C flooded paddy test plant response; conditions: Flood, 250 g ai/ha; scale of 0 to 100 where 0 is no effect and 100 is complete control; 13 to 15 days
Procedure, shortened: as §1

[4] = tested on: Italian ryegrass (Lolium multiflorum); test: Test B pre-/postemergence plant response
Procedure, shortened: (§2)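 Visual injury scores on a 0–100 scale (100 = complete control) relative to untreated plants, taken about 10 days post-treatment in greenhouse. Treatments were a directed preemergence soil spray and a postemergence spray at one- to two-leaf stage, using surfactant-containing solvent formulation.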

[5] = tested on: wheat (Triticum aestivum); test: Test B pre-/postemergence plant response
Procedure, shortened: as §2

[6] = tested on: giant foxtail (Setaria faberii); test: Test B pre-/postemergence plant response
Procedure, shortened: as §2

[7] = tested on: pigweed (Amaranthus retroflexus); test: Test B pre-/postemergence plant response
Procedure, shortened: as §2

kochia (Kochia scoparia) = test: Test B pre-/postemergence plant response
Procedure, shortened: as §2

[8] = tested on: barnyardgrass (Echinochloa crus-galli); test: Test B pre-/postemergence plant response
Procedure, shortened: as §2

corn (Zea mays) = test: Test B pre-/postemergence plant response
Procedure, shortened: as §2

[9] = tested on: ragweed (common ragweed, Ambrosia elatior); test: Test B pre-/postemergence plant response
Procedure, shortened: as §2

[10] = tested on: blackgrass (Alopecurus myosuroides); test: Test B postemergence plant response
Procedure, shortened: (§3)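 Visual injury ratings, 0 = no effect to 100 = complete control, versus untreated controls approximately 10 days after postemergence spraying in greenhouse. Plants were at one- to two-leaf stage, 2 to 10 cm tall, in loam soil/sand blend; a dash denotes no result.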

[11] = tested on: galium (catchweed bedstraw, Galium aparine); test: Test B postemergence plant response
Procedure, shortened: as §3

[12] = 125 g ai/ha, postemergence, 0 to 100 scale, 0 no effect, 100 complete control
[13] = Postemergence, 500 g ai/ha, 0 to 100 scale (0 no effect, 100 complete control)
[14] = Preemergence, 125 g ai/ha, 0 to 100 scale (0 no effect, 100 complete control)
[15] = Preemergence, 500 g ai/ha, 0 to 100 scale where 0 is no effect and 100 is complete control

Cn1ccnc1-c1ccccc1Oc1ncc(Cl)cn1 [Compound 151]
0: Sedge, Umbrella plant response rating [1] | Rice plant response rating (rice (Oryza sativa)) | Barnyardgrass plant response rating [2] | Ducksalad plant response rating [3] | Plant response rating, Ryegrass, Italian [4, 12] | Plant response rating, Ryegrass, Italian [4, 13] | Ryegrass, Italian plant response rating [4, 14] | Plant response rating, Ryegrass, Italian [4, 15] | Plant response rating, Wheat [5, 12] | Plant response rating, Wheat [5, 13] | Plant response rating, Foxtail, Giant [6, 12] | Plant response rating, Foxtail, Giant [6, 13] | Foxtail, Giant plant response rating [6, 14] | Plant response rating, Foxtail, Giant [6, 15] | Plant response rating, Pigweed [7, 12] | Plant response rating, Pigweed [7, 13] | Pigweed plant response rating [7, 14] | Plant response rating, Pigweed [7, 15] | Plant response rating, Kochia (kochia (Kochia scoparia); [12]) | Plant response rating, Kochia (kochia (Kochia scoparia); [13]) | Kochia plant response rating (kochia (Kochia scoparia); [14]) | Plant response rating, Kochia (kochia (Kochia scoparia); [15]) | Plant response rating, Barnyardgrass [8, 12] | Plant response rating, Barnyardgrass [8, 13] | Barnyardgrass plant response rating [8, 14] | Plant response rating, Barnyardgrass [8, 15] | Plant response rating, Corn (corn (Zea mays); [12]) | Plant response rating, Corn (corn (Zea mays); [13]) | Plant response rating, Ragweed [9, 12] | Plant response rating, Ragweed [9, 13] | Ragweed plant response rating [9, 14] | Plant response rating, Ragweed [9, 15] | Plant response rating, Blackgrass [10, 12] | Plant response rating, Blackgrass [10, 13] | Plant response rating, Galium [11, 12] | Plant response rating, Galium [11, 13]

Cn1ccnc1-c1ccccc1Oc1ncc(Br)cn1 [Compound 152]
0: Sedge, Umbrella plant response rating [1] | Rice plant response rating (rice (Oryza sativa)) | Barnyardgrass plant response rating [2] | Ducksalad plant response rating [3] | Plant response rating, Ryegrass, Italian [4, 12] | Plant response rating, Ryegrass, Italian [4, 13] | Ryegrass, Italian plant response rating [4, 14] | Plant response rating, Ryegrass, Italian [4, 15] | Plant response rating, Wheat [5, 12] | Plant response rating, Wheat [5, 13] | Plant response rating, Foxtail, Giant [6, 12] | Plant response rating, Foxtail, Giant [6, 13] | Foxtail, Giant plant response rating [6, 14] | Plant response rating, Foxtail, Giant [6, 15] | Plant response rating, Pigweed [7, 12] | Plant response rating, Pigweed [7, 13] | Pigweed plant response rating [7, 14] | Plant response rating, Pigweed [7, 15] | Plant response rating, Kochia (kochia (Kochia scoparia); [12]) | Plant response rating, Kochia (kochia (Kochia scoparia); [13]) | Kochia plant response rating (kochia (Kochia scoparia); [14]) | Plant response rating, Kochia (kochia (Kochia scoparia); [15]) | Plant response rating, Barnyardgrass [8, 12] | Plant response rating, Barnyardgrass [8, 13] | Barnyardgrass plant response rating [8, 14] | Plant response rating, Barnyardgrass [8, 15] | Plant response rating, Corn (corn (Zea mays); [12]) | Plant response rating, Corn (corn (Zea mays); [13]) | Plant response rating, Ragweed [9, 12] | Plant response rating, Ragweed [9, 13] | Ragweed plant response rating [9, 14] | Plant response rating, Ragweed [9, 15] | Plant response rating, Blackgrass [10, 12] | Plant response rating, Blackgrass [10, 13] | Plant response rating, Galium [11, 12] | Plant response rating, Galium [11, 13]
